# Assay results taken from US20230220037A1, “NOVEL USE” (GlaxoSmithKline Intellectual Property (No.3) Limited, priority 0001, published 2023).
# “Also recorded” adds a separate entry of the source.
# Columns and labels:
# TRPM3 [1] = assay type: cell-based, C57BL/6NJ mice and Sprague Dawley rats; details: cultured TG neurons; agonist 30 min at 37° C.; ELISA
# TRPM3 [2] = assay type: cell-based, mouse; details: for TRPM3 dependence of agonist-induced PACAP release: mouse DRG and TG cells, wild type vs Trpm3 knockout
# TRPM3 [3] = test: CGRP release assay, wild type and Trpm3 knock out DRG and TG neurons; assay type: cell-based, mouse; details: for CGRP release from Trpm3 deficient sensory neurons: Trpm3 knock out DRG and TG neurons; for CGRP release from wild type sensory neurons: wild type DRG and TG neurons
# TRPM3 [4] = target: T1, TRPM3 (Mus musculus, UniProt J9SQF3); details: Held et al., PNAS 2015; cited from earlier work
# T1 sequence (J9SQF3 whole entry): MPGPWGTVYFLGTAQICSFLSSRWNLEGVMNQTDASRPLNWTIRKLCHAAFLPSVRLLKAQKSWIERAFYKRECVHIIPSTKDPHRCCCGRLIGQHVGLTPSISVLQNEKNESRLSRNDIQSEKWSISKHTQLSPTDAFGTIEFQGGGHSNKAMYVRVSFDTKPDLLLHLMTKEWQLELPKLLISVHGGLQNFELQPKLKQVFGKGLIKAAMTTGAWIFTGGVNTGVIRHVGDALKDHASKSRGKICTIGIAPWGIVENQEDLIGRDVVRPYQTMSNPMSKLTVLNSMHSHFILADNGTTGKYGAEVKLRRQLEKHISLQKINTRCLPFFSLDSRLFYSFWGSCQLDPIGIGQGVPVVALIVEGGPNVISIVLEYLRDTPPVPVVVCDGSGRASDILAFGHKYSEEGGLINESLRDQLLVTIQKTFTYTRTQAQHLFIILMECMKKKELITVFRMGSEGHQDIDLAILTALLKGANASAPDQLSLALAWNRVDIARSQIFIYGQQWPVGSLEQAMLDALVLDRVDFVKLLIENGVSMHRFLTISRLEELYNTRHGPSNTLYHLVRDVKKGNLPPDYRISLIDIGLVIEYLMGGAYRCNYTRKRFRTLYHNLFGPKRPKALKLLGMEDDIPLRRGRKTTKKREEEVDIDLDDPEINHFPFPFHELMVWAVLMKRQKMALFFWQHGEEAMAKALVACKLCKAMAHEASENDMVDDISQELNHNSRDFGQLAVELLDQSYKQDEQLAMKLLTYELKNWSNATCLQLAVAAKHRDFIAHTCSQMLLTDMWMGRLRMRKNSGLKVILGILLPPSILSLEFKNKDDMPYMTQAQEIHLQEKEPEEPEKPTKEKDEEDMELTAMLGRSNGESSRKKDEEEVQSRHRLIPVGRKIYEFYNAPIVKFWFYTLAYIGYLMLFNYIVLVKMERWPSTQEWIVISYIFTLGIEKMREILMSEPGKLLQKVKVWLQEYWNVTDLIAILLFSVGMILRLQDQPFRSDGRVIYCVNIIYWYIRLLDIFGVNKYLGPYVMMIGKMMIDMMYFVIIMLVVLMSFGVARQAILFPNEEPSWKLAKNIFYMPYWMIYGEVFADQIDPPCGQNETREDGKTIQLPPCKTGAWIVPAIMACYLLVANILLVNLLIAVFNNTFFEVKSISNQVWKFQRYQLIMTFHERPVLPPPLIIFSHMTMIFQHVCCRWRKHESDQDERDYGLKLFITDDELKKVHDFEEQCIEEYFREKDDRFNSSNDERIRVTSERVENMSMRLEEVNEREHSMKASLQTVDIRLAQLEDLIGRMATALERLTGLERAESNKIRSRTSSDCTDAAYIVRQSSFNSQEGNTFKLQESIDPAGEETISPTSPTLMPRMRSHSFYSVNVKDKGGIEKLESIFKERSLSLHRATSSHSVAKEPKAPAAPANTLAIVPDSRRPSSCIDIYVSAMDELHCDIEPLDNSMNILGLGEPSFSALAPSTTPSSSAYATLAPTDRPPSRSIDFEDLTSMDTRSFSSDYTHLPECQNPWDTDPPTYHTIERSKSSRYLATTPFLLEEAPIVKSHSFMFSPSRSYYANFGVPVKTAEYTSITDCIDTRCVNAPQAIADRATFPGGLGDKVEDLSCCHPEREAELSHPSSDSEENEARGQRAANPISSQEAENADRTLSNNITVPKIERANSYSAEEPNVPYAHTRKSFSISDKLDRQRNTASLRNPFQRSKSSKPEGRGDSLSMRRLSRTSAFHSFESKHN
# TRPM3 [5] = assay type: cell-based, C57BL/6NJ mice and Sprague Dawley rats; details: cultured DRG neurons; agonist 30 min at 37° C.; PS 100 μM; ELISA
# rats [6] = test: Five-day rat dural infusion migraine model, periorbital von Frey testing; assay type: in vivo; details: for Sensitivity to periorbital von Frey stimulation compared to vehicle treated animals: Day 5 (after 4 infusions)
# Protocol: The five-day rat Dural infusion migraine model is based on repeated inflammatory dural stimulation to mimic the repeated activation of dural afferents believed to occur in patients with recurrent migraine headache. In this model, rats are tested in the periorbital region for mechanical allodynia (a pain response to stimuli which are not normally painful) using von Frey fibres, which are small calibrated fibres which deliver a calibrated amount of force.
# The surgery, infusion, and testing followed the modification of the method of Oshinsky & Gomoncharconsiri, 2007, supra. Briefly, rats were habituated and trained for 1-2 weeks and then fitted with a stainless-steel cannula (22GA, Plastics One) under isoflurane anaesthesia. […] Special attention was given not to disturb the dura. A custom flange guide cannula (22GA, Plastics One) was inserted into the hole (cut 0.5 mm below pedestal). The cannula was fixed to the bone with small screws and dental cement. A dummy that extended just past the end of the cannula was inserted to prevent scar tissue from forming, and thus clogging the cannula. Animals were allowed 1-2 weeks of recovery before testing and infusions began.
# Periorbital thresholds were monitored during the recovery period to ensure the thresholds returned to pre-surgery baselines. […] Extra animals were included to account for any post-surgery animal that needed to be excluded.
# After recovering from surgery, animals were infused supra-durally with treatments according to Table 1 for 5 consecutive days. Under isoflurane, the animal's nose was place in the nose cone of the anaesthesia machine. Using a haemostat, the base of the flange cannula was clasped, and the dummy cannula was removed. A custom cannula injector was inserted into the flange cannula. With a Hamilton syringe and infusion pump at a rate of 1.759 μl/min 15 μl of formulations was delivered supra-durally.
# Animals were randomly assigned to a treatment group (A-C) using a software generated randomization scheme. From the first day of sensitization, each animal was tested routinely (every 2-3 days) for changes in periorbital sensitivity by a blinded investigator.
# Pre-infusion sensory testing occurred on Day 1 of the testing schedule to provide a point of comparison for subsequent testing. Sensory testing occurred according to the testing schedule established in Table 1, and prior to infusion when applicable. Sensory testing utilized von Frey filaments with reproducible calibrated buckling forces varying from 0.4-10 g utilizing the Chaplan up and down method. Allodynia was tested by perpendicularly touching the periorbital region causing slight buckling of the filament for approximately 5 seconds. Based on the response pattern and the force of the final filament, the periorbital threshold (g) was calculated (Chaplan et al., 1994, Quantitative assessment of tactile allodynia in the rat paw. Journal of neuroscience methods, 53(1), 55-63). The supra-dural infusions were above the dura in the right brain hemisphere; therefore, the right periorbital threshold data only was recorded. A positive response was characterized by several behavioural criteria: stroking the face with a forepaw, head withdrawal from the stimulus, and head shaking.
# TRPM3 (SEQ ID NO: 2) = target: T2, TRPM3 (SEQ ID NO: 2) (Homo sapiens, UniProt Q9HCF6); test: Calcium mobilisation assay, HEK MSR II cells expressing canonical TRPM3; assay type: cell-based; details: for Relative agonist potency of the isomers of CIM0216 in calcium mobilisation assay: R-isomer vs S-isomer
# T2 construct: expressed in transfected cells; host or cells: HEK MSR II cells transduced with BacMam virus (codon optimised cDNA)
# T2 sequence (Q9HCF6 1-1707 isoform Q9HCF6-2): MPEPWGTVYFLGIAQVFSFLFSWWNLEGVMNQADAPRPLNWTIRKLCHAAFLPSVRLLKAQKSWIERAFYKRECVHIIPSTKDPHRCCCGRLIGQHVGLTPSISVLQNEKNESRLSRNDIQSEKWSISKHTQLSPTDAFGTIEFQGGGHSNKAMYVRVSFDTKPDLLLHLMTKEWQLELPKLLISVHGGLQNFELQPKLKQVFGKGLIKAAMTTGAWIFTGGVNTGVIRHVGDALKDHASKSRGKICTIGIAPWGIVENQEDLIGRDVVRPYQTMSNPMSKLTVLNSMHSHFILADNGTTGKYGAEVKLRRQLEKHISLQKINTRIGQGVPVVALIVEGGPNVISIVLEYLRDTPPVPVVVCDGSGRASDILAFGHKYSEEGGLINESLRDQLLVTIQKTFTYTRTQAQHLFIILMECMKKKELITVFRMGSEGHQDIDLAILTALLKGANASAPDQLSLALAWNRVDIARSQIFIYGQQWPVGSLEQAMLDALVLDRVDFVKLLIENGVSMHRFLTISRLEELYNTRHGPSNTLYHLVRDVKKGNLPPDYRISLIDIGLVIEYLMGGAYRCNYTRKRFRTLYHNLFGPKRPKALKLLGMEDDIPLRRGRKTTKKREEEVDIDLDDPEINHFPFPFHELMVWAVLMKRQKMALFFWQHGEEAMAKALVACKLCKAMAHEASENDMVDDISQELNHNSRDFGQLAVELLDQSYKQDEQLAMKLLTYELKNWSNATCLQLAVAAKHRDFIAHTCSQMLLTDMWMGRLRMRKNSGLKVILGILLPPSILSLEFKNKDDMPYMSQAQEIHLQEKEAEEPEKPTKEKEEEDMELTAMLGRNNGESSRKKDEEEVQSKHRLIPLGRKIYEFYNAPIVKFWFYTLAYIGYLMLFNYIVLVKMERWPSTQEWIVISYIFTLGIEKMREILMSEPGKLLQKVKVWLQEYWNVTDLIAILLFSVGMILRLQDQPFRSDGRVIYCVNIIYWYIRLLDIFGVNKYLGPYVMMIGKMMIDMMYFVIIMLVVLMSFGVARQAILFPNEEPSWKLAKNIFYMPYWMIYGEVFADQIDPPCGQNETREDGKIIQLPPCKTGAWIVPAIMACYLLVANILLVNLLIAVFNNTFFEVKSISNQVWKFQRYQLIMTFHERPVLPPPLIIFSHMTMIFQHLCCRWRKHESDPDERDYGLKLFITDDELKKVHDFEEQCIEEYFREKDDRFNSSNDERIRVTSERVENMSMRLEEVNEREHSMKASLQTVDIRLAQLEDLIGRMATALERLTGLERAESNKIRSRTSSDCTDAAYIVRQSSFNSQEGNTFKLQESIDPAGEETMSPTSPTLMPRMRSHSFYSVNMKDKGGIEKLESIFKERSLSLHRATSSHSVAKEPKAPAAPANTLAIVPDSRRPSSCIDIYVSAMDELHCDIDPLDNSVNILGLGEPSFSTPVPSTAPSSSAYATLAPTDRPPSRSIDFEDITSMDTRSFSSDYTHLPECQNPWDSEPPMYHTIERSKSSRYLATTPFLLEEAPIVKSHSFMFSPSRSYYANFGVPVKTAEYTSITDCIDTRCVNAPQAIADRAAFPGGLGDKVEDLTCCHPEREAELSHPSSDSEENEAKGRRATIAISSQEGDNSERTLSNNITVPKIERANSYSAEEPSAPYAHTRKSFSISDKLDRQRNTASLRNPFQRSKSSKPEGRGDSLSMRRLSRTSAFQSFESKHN
# Protocol: (§1) Example 3—Calcium mobilisation assay and cell lines Calcium mobilisation assays were performed in HEK MSR II cells loaded with the calcium indicator dye Fluo4. The cells were induced to express TRPM3 (SEQ ID NO: 2) or mutants thereof by transducing them with Bacmam virus containing the codon optimised cDNA sequence for the required TRPM3 variant at a multiplicity of infection of approximately 40 for 48 hours prior to the experiment. Cells were incubated in the presence of FLUO4-AM and TRPM3 inhibitors for approx 1.5 hrs prior to transfer to a FLIPR where the cells were treated with TRPM3 agonists to induce calcium mobilisation. Fluo4 fluorescence was monitored for 10 min. As a positive control the cells were then treated with the calcium ionophore ionomycin and the fluorescence monitored for a further 3 min.
# rats [7] = details: inflammatory soup infusion; historical data; cited from earlier work
# PACAP-38 = details: treatment with sumatriptan; cited from earlier work
# [8] = target: T3, variant of SEQID NO: 2 having the R1670Q mutation (Homo sapiens, UniProt Q9HCF6, R1695Q); test: Calcium mobilisation assay, HEK MSR II cells expressing TRPM3 R1670Q variant; assay type: cell-based
# T3 construct: expressed in transfected cells; host or cells: HEK MSR II cells transduced with BacMam virus (codon optimised cDNA)
# T3 sequence (Q9HCF6 1-1707 isoform Q9HCF6-2 R1670Q): as the sequence (Q9HCF6 1-1707 isoform Q9HCF6-2) above, with R1670Q counted along it
# Protocol: as §1
# TRPM3 [9] = target: T1, TRPM3; design: trigeminal neurons from mice; host or cells: trigeminal neurons from mice; details: Vriens et al., Neuron 2011; cited from earlier work
# [10] = supra-dural infusion 5 days, Pregnenolone sulphate 5 mM, CIM0216 215 μM
# [11] = HEK MSR II cells, Bacmam transduction
Compound,CGRP release from TG neurons induced by TRPM3 agonist (TRPM3 [1]),TRPM3 dependence of agonist-induced PACAP release (TRPM3 [2]),CGRP release from Trpm3 deficient sensory neurons (TRPM3 [3]),CGRP release from wild type sensory neurons (TRPM3 [3]),CGRP release from DRG neurons induced by TRPM3 agonist (TRPM3 [5]),Sensitivity to periorbital von Frey stimulation compared to vehicle treated animals (rats [6]),Mechanical allodynia in the periorbital region (von Frey thresholds) (rats [6]; [10]),further results
"Cc1cc(NC(=O)C(c2ccccc2)N2CCCc3ccccc32)no1 (racemic) [CIM0216, 2-(3,4-dihydroquinolin-1(2H)-yl)-N-(5-methylisoxazol-3-yl)-2-phenylacetamide]",induced a concentration dependent release of CGRP; also recorded: stimulate release of CGRP,dependent on TRPM3,absent; also recorded: lacking,dose-dependent release of CGRP,induced a concentration dependent release of CGRP; also recorded: induce release of CGRP,effective in increasing sensitivity to periorbital von Frey (VF) stimulation as early as Day 5,induce mechanical allodynia in the periorbital region of rats; also recorded: trigger mechanical allodynia in the periorbital region,CGRP release from isolated mouse hind paw skin (TRPM3 [4]): induced to release CGRP; Overt adverse effects / body weight (rats [6]; [10]): do not cause overt adverse effects
"Cc1cc(NC(=O)[C@@H](C)N2CCCc3ccccc32)no1 (single isomer, unassigned) [R-isomer]",–,–,–,–,–,–,–,"Relative agonist potency of the isomers of CIM0216 in calcium mobilisation assay (TRPM3 (SEQ ID NO: 2)): more potent agonist compared to the S-isomer; Relative agonist potency of the isomers of CIM0216 in calcium mobilisation assay (TRPM3 (SEQ ID NO: 2); listed as (R)-2-(3,4-dihydroquinolin-1(2H)-yl)-N-(5-methylisoxazol-3-yl)propenamide): more potent agonist than the (S)-isomer"
COc1cc(CNC(=O)CCCC/C=C/C(C)C)ccc1O [capsaicin],–,–,could be induced by capsaicin,–,–,–,–,PACAP release from Trpm3 knockout cells (TRPM3 [2]; Trpm3 knockout mouse DRG and TG cells): still responsive; CGRP release from Trpm3 deficient sensory neurons (TRPM3 [3]; listed as Capsaicin): evoked CGRP release
CNS(=O)(=O)Cc1ccc2[nH]cc(CCN(C)C)c2c1 [sumatriptan],–,–,–,–,–,–,–,Mechanical nociception sensitivity (rats [7]): alleviated; PACAP-38 levels (PACAP-38): decreased PACAP-38 levels
pregnenolone sulfate,increased release of CGRP; also recorded: demonstrated to be concentration dependent; also recorded: stimulate release of CGRP,dependent on TRPM3,absent,dose-dependent release of CGRP,increased release of CGRP; also recorded: induce release of CGRP,effective in increasing sensitivity to periorbital von Frey (VF) stimulation as early as Day 5,induce mechanical allodynia in the periorbital region of rats; also recorded: trigger mechanical allodynia in the periorbital region,"CGRP release from Trpm3 deficient sensory neurons (TRPM3 [3]; listed as PS): lacking; Increase in FLUO4 fluorescence, R1670Q variant [8, 11]: induced concentration-dependent increases in FLUO4 fluorescence; Potency at the R1670Q variant relative to canonical TRPM3 ([8]; greater at R1670Q, equal multiplicities of infection): 1.8 fold; Maximal fold change in fluorescence at R1670Q variant relative to canonical ([8]; larger at R1670Q, equal multiplicities of infection): 26%; Inward current in trigeminal neurons (TRPM3 [9]): induced an inward current; Increase in FLUO4 fluorescence, canonical TRPM3 (TRPM3 (SEQ ID NO: 2); [11]): induced concentration-dependent increases in FLUO4 fluorescence"
